{"source": "paper PMC10108266", "about": "“Pharmacokinetic characteristics of golidocitinib, a highly selective JAK1 inhibitor, in healthy adult participants” (Frontiers in Immunology, 2023)", "key": {"[1]": {"test": "JACKPOT2 single-ascending-dose plasma PK, healthy participants in USA", "format": "in vivo, human", "settings": "for Cmax / Tmax / AUC(0-inf) / Vd/F / half-life: human, plasma; for Cmax / AUC(0-inf): geometric mean (CV%)", "text": "This was a Phase I, randomized, double-blinded, placebo-controlled study to assess the safety, tolerability, and PK of golidocitinib in healthy participants in the USA. This study included two parts: part A (single-ascending-dose [SAD] and food effect [FE] cohorts) and part B (multiple-ascending-dose [MAD] cohorts). Please refer to Figure 1 for the study flowchart.\n(§1) A total of 42 and 24 healthy participants were enrolled in part A and part B, respectively. In part A, a total of 30 participants were randomized into 5 SAD cohorts (n = 6 per cohort) and received a single dose of golidocitinib at different dose levels or a matching placebo in a 4:2 ratio. In the food effect cohort, a total of 12 participants were enrolled and received the study drug under fasted or fed conditions, with a sequential design. The 50 mg dose was selected based on available safety data after the completion of the SAD cohorts, and also on the outcomes from PK/PD modeling for potential efficacious dose for autoimmune disease. On Day 1, participants took a single dose of golidocitinib under fast condition. After a 14-day wash-out period, on Day 15, participants received another single dose of golidocitinib immediately after a standard high-fat meal. Food recipes and contents are consistent with that described in FDA Guidance for Food-Effect Bioavailability studies ([10]). For the fed condition, keeping fasted for at least 10 hours, participants started ingestion of high-fat meal 30 minutes prior to administration of golidocitinib. They had to finish the meal within 30 minutes or less, and no food was allowed for at least 4 hours post-dose. In part B, a total of 24 participants were randomized into 3 MAD cohorts, with 8 in each cohort (active:placebo = 6:2). In these cohorts, participants received golidocitinib at different dose levels or placebo once daily dosing for 14 days. Dose escalation was based on available PK and safety data in the previous cohorts.\nIn the SAD cohorts, serial blood samples were obtained on Day 1 at pre-dose, and at 0.5, 1, 1.5, 2, 3, 4, 6, 10, 14, 24 (Day 2), 48 (Day 3), 72 (Day 4), 120 (Day 6), 168 (Day 8) and 216 (Day 10) hours post-dose for plasma PK analysis. A similar sampling schedule was undertaken for the MAD cohorts on Day 1 and Day 14, with additional trough samples obtained on Days 5, Day 8, and Day 11. In the MAD cohorts, urine samples were collected on Day 14 during the collection intervals of 0-4, 4-10, and 10-24 hours following the last dose for urine PK analysis. Plasma and urine samples were analyzed by Frontage Laboratories Inc. (New Jersey, USA) using a validated LC/MS/MS bioanalytical method to determine golidocitinib concentrations. Cross validation in plasma was successful between Frontage Laboratories Inc. (New Jersey, USA) and Frontage Laboratories Inc. (Shanghai) using clinical samples and spiked quality control samples.\nNon-compartmental PK analysis for golidocitinib concentrations was performed using Phoenix WinNonlin (Certara USA Inc., version 8.1).\nDose proportionality was concluded if the 90% confidence interval for the ratio of dose-normalized, geometric mean values (Rdnm) was contained completely within the range of 0.8 - 1.25 ([11], [12])."}, "[2]": {"test": "JACKPOT2 food effect cohort (50 mg, fasted vs high-fat meal)", "format": "in vivo, human", "settings": "for AUC0-inf, Geometric Mean Ratio (90% CI) (Test vs Reference) / AUC0-t, Geometric Mean Ratio (90% CI) (Test vs Reference) / Cmax, Geometric Mean Ratio (90% CI) (Test vs Reference) / AUC(0-inf) / AUC(0-t) / Cmax: 50 mg; for AUC0-inf, Geometric Mean Ratio (90% CI) (Test vs Reference) / AUC0-t, Geometric Mean Ratio (90% CI) (Test vs Reference) / Cmax, Geometric Mean Ratio (90% CI) (Test vs Reference): fed versus fasted, percent ratio of geometric least square means; for AUC(0-inf): read-out: AUC0-inf, Geometric mean (%CV); for AUC(0-t): read-out: AUC0-t, Geometric mean (%CV); for Cmax: read-out: Cmax, Geometric mean (%CV)", "protocol": "as §1\nFor food effect assessment, log-transformed PK parameters (AUC0-t, AUC0-inf, and Cmax) of golidocitinib were analyzed using a mixed-effect model including terms for study treatment (fasted and fed) as fixed effects, and participants nested within treatment as a random effect. The CIs on the ratios of untransformed PK parameters were derived through a reverse transformation of the 90% CIs for the differences of the means in the log scale from the mixed-effect model. Least-squares geometric means, a ratio of the geometric means and 90% CIs on the ratio of fed to fasted were presented."}, "[3]": {"settings": "human, plasma, oral, 50 mg single dose, Fasted (Reference), N = 12"}, "[4]": {"settings": "human, plasma, oral, 50 mg single dose, High-fat meal (Test), N = 11"}}, "note": "Read-outs that look alike come from different tables or passages of the source.", "data": [{"smiles": "COc1nn(C)cc1Nc1nccc(-c2c[nH]c3c(NC(=O)[C@@H](C)N4CCN(C)CC4)cccc23)n1", "note": "[golidocitinib, (2R)-N-[3-[2-[(3-Methoxy-1-methyl-pyrazol-4-yl)amino]pyrimidin-4-yl]-1H-indol-7-yl]-2-(4-methylpiperazin-1-yl)propenamide]", "values": [{"measurement": "Cmax", "setting": "[1]; oral, single dose 5 mg", "result": 5.14, "unit": "ng/mL"}, {"measurement": "Tmax", "setting": "[1]; oral, single dose 5 mg, median (min, max), read-out: tmax", "result": 8, "unit": "h"}, {"measurement": "AUC(0-inf)", "setting": "[1]; oral, single dose 20 mg", "result": 923, "unit": "ng·h/mL"}, {"measurement": "Cmax", "setting": "[1]; oral, single dose 20 mg", "result": 18.6, "unit": "ng/mL"}, {"measurement": "Vd/F", "setting": "[1]; oral, single dose 20 mg, mean (SD), read-out: Vz/F", "result": 1540, "unit": "L"}, {"measurement": "half-life", "setting": "[1]; oral, single dose 20 mg, median (min, max), read-out: t1/2 (converted)", "result": 3080, "unit": "min"}, {"measurement": "Tmax", "setting": "[1]; oral, single dose 20 mg, median (min, max), read-out: tmax", "result": 8, "unit": "h"}, {"measurement": "AUC(0-inf)", "setting": "[1]; oral, single dose 50 mg", "result": 2340, "unit": "ng·h/mL"}, {"measurement": "Cmax", "setting": "[1]; oral, single dose 50 mg", "result": 48.5, "unit": "ng/mL"}, {"measurement": "Vd/F", "setting": "[1]; oral, single dose 50 mg, mean (SD), read-out: Vz/F", "result": 1420, "unit": "L"}, {"measurement": "half-life", "setting": "[1]; oral, single dose 50 mg, median (min, max), read-out: t1/2 (converted)", "result": 2570, "unit": "min"}, {"measurement": "Tmax", "setting": "[1]; oral, single dose 50 mg, median (min, max), read-out: tmax", "result": 6, "unit": "h"}, {"measurement": "AUC(0-inf)", "setting": "[1]; oral, single dose 100 mg", "result": 5260, "unit": "ng·h/mL"}, {"measurement": "Cmax", "setting": "[1]; oral, single dose 100 mg", "result": 133, "unit": "ng/mL"}, {"measurement": "Vd/F", "setting": "[1]; oral, single dose 100 mg, mean (SD), read-out: Vz/F", "result": 1380, "unit": "L"}, {"measurement": "half-life", "setting": "[1]; oral, single dose 100 mg, median (min, max), read-out: t1/2 (converted)", "result": 3020, "unit": "min"}, {"measurement": "Tmax", "setting": "[1]; oral, single dose 100 mg, median (min, max), read-out: tmax", "result": 2.5, "unit": "h"}, {"measurement": "AUC(0-inf)", "setting": "[1]; oral, single dose 150 mg", "result": 7260, "unit": "ng·h/mL"}, {"measurement": "Cmax", "setting": "[1]; oral, single dose 150 mg", "result": 232, "unit": "ng/mL"}, {"measurement": "Vd/F", "setting": "[1]; oral, single dose 150 mg, mean (SD), read-out: Vz/F", "result": 1400, "unit": "L"}, {"measurement": "half-life", "setting": "[1]; oral, single dose 150 mg, median (min, max), read-out: t1/2 (converted)", "result": 2800, "unit": "min"}, {"measurement": "Tmax", "setting": "[1]; oral, single dose 150 mg, median (min, max), read-out: tmax", "result": 3, "unit": "h"}, {"measurement": "Vd/F", "setting": "[1]; single oral administration, US participants, read-out: mean Vz/F", "result": "1380 to 1540", "unit": "L"}, {"measurement": "half-life", "setting": "[1]; single oral administration, across the dose range, US participants, read-out: median terminal half-life (t1/2)", "result": "2570 to 3080", "unit": "min"}, {"measurement": "Tmax", "setting": "[1]; single oral administration, across the dose range, US participants, read-out: median tmax", "result": "2.5 to 8", "unit": "h"}, {"measurement": "CL/F", "setting": "[1]; single dose 20 mg, mean (SD)", "result": "21.7 (1.18) L/hr"}, {"measurement": "CL/F", "setting": "[1]; single dose 50 mg, mean (SD)", "result": "22.1 (6.20) L/hr"}, {"measurement": "CL/F", "setting": "[1]; single dose 100 mg, mean (SD)", "result": "19.2 (3.09) L/hr"}, {"measurement": "CL/F", "setting": "[1]; single dose 150 mg, mean (SD)", "result": "21.9 (8.58) L/hr"}, {"measurement": "tmax, Median (range)", "setting": "[2]; 50 mg single dose, High-fat meal (Test), N = 11", "result": "6.00 (4.00, 14.0) hour"}, {"measurement": "AUC0-inf, Geometric Mean Ratio (90% CI) (Test vs Reference)", "setting": "[2]", "result": "116.5 (111.2, 122.0) %"}, {"measurement": "AUC0-t, Geometric Mean Ratio (90% CI) (Test vs Reference)", "setting": "[2]", "result": "115.0 (109.3, 121.0) %"}, {"measurement": "Cmax, Geometric Mean Ratio (90% CI) (Test vs Reference)", "setting": "[2]", "result": "108.9 (97.81, 121.2) %"}, {"measurement": "AUC0-inf, Geometric Mean Ratio (90% CI) (Test vs Reference)", "setting": "[2]; listed as Golidocitinib", "result": "116.5 (111.2-122.0) %"}, {"measurement": "AUC0-t, Geometric Mean Ratio (90% CI) (Test vs Reference)", "setting": "[2]; listed as Golidocitinib", "result": "115.0 (109.3-121.0) %"}, {"measurement": "Cmax, Geometric Mean Ratio (90% CI) (Test vs Reference)", "setting": "[2]; listed as Golidocitinib", "result": "108.9 (97.81-121.2) %"}, {"measurement": "AUC(0-inf)", "setting": "[2]; [3]", "result": 2960, "unit": "ng·h/mL"}, {"measurement": "AUC(0-t)", "setting": "[2]; [3]", "result": 2770, "unit": "ng·h/mL"}, {"measurement": "Cmax", "setting": "[2]; [3]", "result": 68.8, "unit": "ng/mL"}, {"measurement": "AUC(0-inf)", "setting": "[2]; [4]", "result": 3400, "unit": "ng·h/mL"}, {"measurement": "AUC(0-t)", "setting": "[2]; [4]", "result": 3230, "unit": "ng·h/mL"}, {"measurement": "Cmax", "setting": "[2]; [4]", "result": 73.7, "unit": "ng/mL"}, {"measurement": "Tmax", "setting": "[2]; human, plasma, oral, 50 mg single dose, Fasted (Reference), N = 12, read-out: tmax, Median (range)", "result": 6, "unit": "h"}]}]}
